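Test compounds were applied to cells in 96-well plates for 48 hours at 5 doses. GI50 marks 50% less growth.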 Calls of active or inactive are those of the source. Rule as the data show it: active = GI50 up to about 1.1 µM and inactive = higher.
Experiments:
Experiment in all cases: DTP human tumour cell line panel, 48 h
786-0 = test system: 786-0
A549 = test system: A549
ACHN = test system: ACHN
CAKI-1 = test system: CAKI-1
COLO 205 = test system: COLO 205
DLD-1 = test system: DLD-1
DMS-114 = test system: DMS-114
DMS-273 = test system: DMS-273
EKVX = test system: EKVX
HCC 2998 = test system: HCC 2998
HCT-116 = test system: HCT-116
HL-60 = test system: HL-60
HOP-18 = test system: HOP-18
HOP-62 = test system: HOP-62
HOP-92 = test system: HOP-92
HT-29 = test system: HT-29
KM-20L2 = test system: KM-20L2
KM12 = test system: KM12
LOX IMVI = test system: LOX IMVI
LXFL 529 = test system: LXFL 529
M14 = test system: M14
M19-MEL = test system: M19-MEL
Malme-3M = test system: Malme-3M
NCI-H226 = test system: NCI-H226
NCI-H23 = test system: NCI-H23
NCI-H460 = test system: NCI-H460
NCI-H522 = test system: NCI-H522
OVCAR-3 = test system: OVCAR-3
OVCAR-4 = test system: OVCAR-4
OVCAR-5 = test system: OVCAR-5
OVCAR-8 = test system: OVCAR-8
RXF 393 = test system: RXF 393
SF-268 = test system: SF-268
SF-295 = test system: SF-295
SF-539 = test system: SF-539
SK-MEL-28 = test system: SK-MEL-28
SK-MEL-2 = test system: SK-MEL-2
SN12C = test system: SN12C
SNB-19 = test system: SNB-19
SNB-75 = test system: SNB-75
SNB-78 = test system: SNB-78
SW-620 = test system: SW-620
TK-10 = test system: TK-10
U-251 = test system: U-251
UACC-257 = test system: UACC-257
UO-31 = test system: UO-31
XF498 = test system: XF498
A498 = test system: A498
BT-549 = test system: BT-549
CCRF-CEM = test system: CCRF-CEM
DU-145 = test system: DU-145
HCT-15 = test system: HCT-15
Hs-578T = test system: Hs-578T
IGROV-1 = test system: IGROV-1
K562 = test system: K562
MCF7 = test system: MCF7
MDA-MB-231 = test system: MDA-MB-231
MDA-MB-435 = test system: MDA-MB-435
MDA-N = test system: MDA-N
MOLT-4 = test system: MOLT-4
NCI/ADR-RES = test system: NCI/ADR-RES
PC-3 = test system: PC-3
RPMI-8226 = test system: RPMI-8226
SK-MEL-5 = test system: SK-MEL-5
SK-OV-3 = test system: SK-OV-3
SR = test system: SR
T47D = test system: T47D
UACC-62 = test system: UACC-62

Measured: GI50

CC(NC(=O)C(=O)N/N=C1\C[C@@H](c2ccccc2)Nc2ccccc21)c1ccccc1 (some centres undefined)
active: HOP-18 < 0.01 µM | SN12C 1.06 µM | UACC-257 0.382 µM
inactive: 786-0 > 100 µM | A549 > 100 µM | ACHN 36.1 µM | CAKI-1 > 100 µM | COLO 205 48.2 µM | DLD-1 > 100 µM | DMS-114 97.1 µM | DMS-273 7.55 µM | EKVX 17.1 µM | HCC 2998 > 100 µM | HCT-116 > 100 µM | HL-60 8.57 µM | HOP-62 > 100 µM | HOP-92 20 µM | HT-29 80.7 µM | KM-20L2 > 100 µM | KM12 > 100 µM | LOX IMVI > 100 µM | LXFL 529 77.4 µM | M14 > 100 µM | M19-MEL > 100 µM | Malme-3M 20.5 µM | NCI-H226 10.4 µM | NCI-H23 > 100 µM | NCI-H460 > 100 µM | NCI-H522 > 100 µM | OVCAR-3 > 100 µM | OVCAR-4 29.3 µM | OVCAR-5 > 100 µM | OVCAR-8 > 100 µM | RXF 393 53.7 µM | SF-268 94.6 µM | SF-295 > 100 µM | SF-539 > 100 µM | SK-MEL-28 > 100 µM | SK-MEL-2 53 µM | SNB-19 > 100 µM | SNB-75 10.7 µM | SNB-78 > 100 µM | SW-620 > 100 µM | TK-10 > 100 µM | U-251 > 100 µM | UO-31 33 µM | XF498 18.3 µM

CC1=CCCC2C1(C)CCC(C)C2(C)Cc1cc(O)ccc1O (centres undefined)
8.73 µM: HCT-15
inactive: 786-0 7.24 µM | A498 12.9 µM | A549 5.62 µM | ACHN 11.9 µM | BT-549 5.22 µM | CAKI-1 7.1 µM | CCRF-CEM 1.56 µM | COLO 205 14.8 µM | DLD-1 6.34 µM | DMS-114 4.2 µM | DMS-273 4.91 µM | DU-145 15 µM | EKVX 6.27 µM | HCC 2998 8.59 µM | HCT-116 4 µM | HL-60 1.22 µM | HOP-18 19.2 µM | HOP-62 13.5 µM | HOP-92 5.79 µM | HT-29 18.7 µM | Hs-578T 6.19 µM | IGROV-1 5.94 µM | K562 4.81 µM | KM-20L2 10.8 µM | KM12 5.94 µM | LOX IMVI 5.48 µM | M14 14.4 µM | M19-MEL 5.57 µM | MCF7 5.62 µM | MDA-MB-231 12.9 µM | MDA-MB-435 7.24 µM | MDA-N 11.1 µM | MOLT-4 2.43 µM | Malme-3M 17.7 µM | NCI-H226 9.29 µM | NCI-H23 4.44 µM | NCI-H460 5.69 µM | NCI-H522 3.18 µM | NCI/ADR-RES 5.21 µM | OVCAR-3 5.74 µM | OVCAR-4 10.8 µM | OVCAR-5 21 µM | OVCAR-8 4.54 µM | PC-3 5.75 µM | RPMI-8226 2.86 µM | RXF 393 7.6 µM | SF-268 7.26 µM | SF-295 6.3 µM | SF-539 8.34 µM | SK-MEL-28 14.1 µM | SK-MEL-2 9.06 µM | SK-MEL-5 9.16 µM | SK-OV-3 14.6 µM | SN12C 8.3 µM | SNB-19 5.68 µM | SNB-75 7.66 µM | SNB-78 2.59 µM | SR 5.46 µM | SW-620 6.12 µM | T47D 6.59 µM | TK-10 11.1 µM | U-251 4.26 µM | UACC-257 13.2 µM | UACC-62 8.49 µM | UO-31 4.84 µM | XF498 7.23 µM
